Assay: recombinant barcode read abundance after kanamycin selection (control-corrected) (log10(CPM+1)); higher = more efficient recombination; sequences stand for … in AGTGCAGAGAAAATCGGCCAGTTTTCTCTGCCTGCAGTCCGCATGCCGT…AGATTTATGCAGCGGACTGCCTTTCTCCCAAAGTGATAAACCGGACAGTATCATGGACCGGTTTTCCCGGTAATCCGTATTTGCAAGGTTGGTTTCACT; site = the 11-nt target
Description: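 Pooled E. coli target-specificity screen for the IS621 bridge recombinase. Each library plasmid pairs an 11-nt target (CT core) with a bridge RNA whose target-binding loop (9-nt LTG + 4-nt RTG) is reprogrammed; the rest of the 177-nt WT IS621 bridge RNA scaffold is fixed. The plasmid is co-electroporated with a WT donor plasmid; recombinase is induced with 0.1 mM IPTG and recombinants are selected on kanamycin. Recombinant barcodes are sequenced, converted to CPM, averaged over two biological replicates and corrected by the unselected control CPM. Molecule = full bridge RNA written as DNA: LTG = specificity nt 1-9, RTG = reverse complement of specificity nt 8-11, in the WT scaffold.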
With “AAGGTCACTTGGGTTCTAACCTGTTGCCT (site AAGGTCACTAG)” the “recombinant barcode read abundance (log10)” value was 2.24.
With “AAGGTCACTTGGGTTCTAACCTGTTGCCT (site ACGGTCACTAG)” the “recombinant barcode read abundance (log10)” value was 0.816.
For “AAGGTCACTTGGGTTCTAACCTGTTGCCT (site AGGGTCACTAG)”, the “recombinant barcode read abundance (log10)” value was 0.0802.
In the case of “AAGGTCACTTGGGTTCTAACCTGTTGCCT (site ATGGTCACTAG)”, the “recombinant barcode read abundance (log10)” value was 0.361.
With “AAGGTCACTTGGGTTCTAACCTGTTGCTG (site AAGGTCACTCA)” the “recombinant barcode read abundance (log10)” value was 2.52.
In the case of “AAGGTCACTTGGGTTCTAACCTGTTGCTG (site GTACATCCTAC)”, the “recombinant barcode read abundance (log10)” value was 0.0968.
For “AAGTCCACTTGGGTTCTAACCTGTTGCCT (site AAGTCCACTAG)”, the “recombinant barcode read abundance (log10)” value was 0.934.
In the case of “AAGTCCACTTGGGTTCTAACCTGTTGCCT (site ATTTCCACTAG)”, the “recombinant barcode read abundance (log10)” value was 0.027.
With “AAGTCTCCTTGGGTTCTAACCTGTTGCAG (site AAGTCTCCTCT)” the “recombinant barcode read abundance (log10)” value was 0.174.
With “AAGTCTCCTTGGGTTCTAACCTGTTGCAG (site GCAATATCTAG)” the “recombinant barcode read abundance (log10)” value was 0.116.
In the case of “AAGTCTCCTTGGGTTCTAACCTGTTGCCT (site AAGACTCCTAG)”, the “recombinant barcode read abundance (log10)” value was 0.134.
For “AAGTCTCCTTGGGTTCTAACCTGTTGCCT (site AAGTCTCCTAG)”, the “recombinant barcode read abundance (log10)” value was 0.64.
For “AAGTGAGCTTGGGTTCTAACCTGTTGCAG (site AAGTGAGCTCT)”, the “recombinant barcode read abundance (log10)” value was 2.69.
For “AAGTGAGCTTGGGTTCTAACCTGTTGCAG (site AATAGAGCTCT)”, the “recombinant barcode read abundance (log10)” value was 0.12.
With “AAGTGGACTTGGGTTCTAACCTGTTGCCT (site AAGTCGACTAG)” the “recombinant barcode read abundance (log10)” value was 0.121.
With “AAGTGGACTTGGGTTCTAACCTGTTGCCT (site AAGTGGACTAG)” the “recombinant barcode read abundance (log10)” value was 1.93.
In the case of “AAGTTAGCTTGGGTTCTAACCTGTTGCGG (site AAGTTAGCTCC)”, the “recombinant barcode read abundance (log10)” value was 2.28.
With “AAGTTAGCTTGGGTTCTAACCTGTTGCGG (site GGCAACTCTAG)” the “recombinant barcode read abundance (log10)” value was 0.108.
With “AAGTTGACTTGGGTTCTAACCTGTTGCCT (site AAATTGACTAG)” the “recombinant barcode read abundance (log10)” value was 0.378.
In the case of “AAGTTGACTTGGGTTCTAACCTGTTGCCT (site AACTTGACTAG)”, the “recombinant barcode read abundance (log10)” value was 0.248.
For “AAGTTGACTTGGGTTCTAACCTGTTGCCT (site AAGTTGACTAG)”, the “recombinant barcode read abundance (log10)” value was 1.57.
For “AAGTTGACTTGGGTTCTAACCTGTTGCCT (site AATTTGACTAG)”, the “recombinant barcode read abundance (log10)” value was 0.304.
In the case of “AATAACCCTTGGGTTCTAACCTGTTGCCT (site AATAACCCTAG)”, the “recombinant barcode read abundance (log10)” value was 1.2.
In the case of “AATAACCCTTGGGTTCTAACCTGTTGCCT (site ACTAACCCTAG)”, the “recombinant barcode read abundance (log10)” value was 0.145.
In the case of “AATAACCCTTGGGTTCTAACCTGTTGCCT (site AGTAACCCTAG)”, the “recombinant barcode read abundance (log10)” value was 0.146.
For “AATAACCCTTGGGTTCTAACCTGTTGCCT (site ATTAACCCTAG)”, the “recombinant barcode read abundance (log10)” value was 0.0794.
For “AATAGCTCTTGGGTTCTAACCTGTTGCCT (site AATAGCTCTAG)”, the “recombinant barcode read abundance (log10)” value was 0.82.
In the case of “AATAGCTCTTGGGTTCTAACCTGTTGCCT (site CATAGCTCTAG)”, the “recombinant barcode read abundance (log10)” value was 0.0982.
For “AATAGCTCTTGGGTTCTAACCTGTTGCCT (site GATAGCTCTAG)”, the “recombinant barcode read abundance (log10)” value was 0.166.
In the case of “AATAGCTCTTGGGTTCTAACCTGTTGCCT (site TATAGCTCTAG)”, the “recombinant barcode read abundance (log10)” value was 0.116.
For “AATATCTCTTGGGTTCTAACCTGTTGCCA (site AATATCTCTTG)”, the “recombinant barcode read abundance (log10)” value was 0.278.
With “AATATCTCTTGGGTTCTAACCTGTTGCCA (site CTACCTACTCC)” the “recombinant barcode read abundance (log10)” value was 0.144.
For “AATATGCCTTGGGTTCTAACCTGTTGCCT (site AATATGCCTAG)”, the “recombinant barcode read abundance (log10)” value was 0.582.
In the case of “AATATGCCTTGGGTTCTAACCTGTTGCCT (site AATCTCCCTAG)”, the “recombinant barcode read abundance (log10)” value was 0.0372.
For “AATGCTTCTTGGGTTCTAACCTGTTGCCT (site AATGCTTCTAG)”, the “recombinant barcode read abundance (log10)” value was 1.05.
In the case of “AATGCTTCTTGGGTTCTAACCTGTTGCCT (site AATTGTTCTAG)”, the “recombinant barcode read abundance (log10)” value was 0.167.
For “AATGGGACTTGGGTTCTAACCTGTTGCCT (site AATGGGACTAG)”, the “recombinant barcode read abundance (log10)” value was 1.72.
For “AATGGGACTTGGGTTCTAACCTGTTGCCT (site AATGGGCCTAG)”, the “recombinant barcode read abundance (log10)” value was 0.171.
For “AATGGGACTTGGGTTCTAACCTGTTGCCT (site AATGGGGCTAG)”, the “recombinant barcode read abundance (log10)” value was 0.222.
With “AATGGGACTTGGGTTCTAACCTGTTGCCT (site AATGGGTCTAG)” the “recombinant barcode read abundance (log10)” value was 0.0882.
In the case of “AATGGGGCTTGGGTTCTAACCTGTTGCCT (site AATGGGACTAG)”, the “recombinant barcode read abundance (log10)” value was 0.369.
With “AATGGGGCTTGGGTTCTAACCTGTTGCCT (site AATGGGCCTAG)” the “recombinant barcode read abundance (log10)” value was 0.189.
For “AATGGGGCTTGGGTTCTAACCTGTTGCCT (site AATGGGGCTAG)”, the “recombinant barcode read abundance (log10)” value was 0.79.
With “AATGGGGCTTGGGTTCTAACCTGTTGCCT (site AATGGGTCTAG)” the “recombinant barcode read abundance (log10)” value was 0.274.
In the case of “AATGTATCTTGGGTTCTAACCTGTTGCCT (site AATGAATCTAG)”, the “recombinant barcode read abundance (log10)” value was 0.
With “AATGTATCTTGGGTTCTAACCTGTTGCCT (site AATGCATCTAG)” the “recombinant barcode read abundance (log10)” value was 0.0382.
With “AATGTATCTTGGGTTCTAACCTGTTGCCT (site AATGGATCTAG)” the “recombinant barcode read abundance (log10)” value was 0.0435.
For “AATGTATCTTGGGTTCTAACCTGTTGCCT (site AATGTATCTAG)”, the “recombinant barcode read abundance (log10)” value was 1.17.
For “AATTCGACTTGGGTTCTAACCTGTTGCCT (site AATTCGACTAG)”, the “recombinant barcode read abundance (log10)” value was 0.399.
For “AATTCGACTTGGGTTCTAACCTGTTGCCT (site ACTTCGACTAG)”, the “recombinant barcode read abundance (log10)” value was 0.0747.
In the case of “AATTCGACTTGGGTTCTAACCTGTTGCCT (site AGTTCGACTAG)”, the “recombinant barcode read abundance (log10)” value was 0.222.
With “AATTCGACTTGGGTTCTAACCTGTTGCCT (site ATTTCGACTAG)” the “recombinant barcode read abundance (log10)” value was 0.
In the case of “AATTGTCCTTGGGTTCTAACCTGTTGCTT (site AATTGTCCTAA)”, the “recombinant barcode read abundance (log10)” value was 0.246.
In the case of “AATTGTCCTTGGGTTCTAACCTGTTGCTT (site AATTGTCCTAC)”, the “recombinant barcode read abundance (log10)” value was 0.257.
For “AATTGTCCTTGGGTTCTAACCTGTTGCTT (site AATTGTCCTAG)”, the “recombinant barcode read abundance (log10)” value was 0.0453.
For “AATTGTCCTTGGGTTCTAACCTGTTGCTT (site AATTGTCCTAT)”, the “recombinant barcode read abundance (log10)” value was 0.125.
For “AATTGTTCTTGGGTTCTAACCTGTTGCCT (site AATGCTTCTAG)”, the “recombinant barcode read abundance (log10)” value was 0.028.
For “AATTGTTCTTGGGTTCTAACCTGTTGCCT (site AATTGTTCTAG)”, the “recombinant barcode read abundance (log10)” value was 0.253.
In the case of “AATTTCTCTTGGGTTCTAACCTGTTGCCT (site AATTTCTCTAG)”, the “recombinant barcode read abundance (log10)” value was 0.0321.
In the case of “AATTTCTCTTGGGTTCTAACCTGTTGCCT (site CATTTCTCTAG)”, the “recombinant barcode read abundance (log10)” value was 0.0907.
With “AATTTCTCTTGGGTTCTAACCTGTTGCCT (site GATTTCTCTAG)” the “recombinant barcode read abundance (log10)” value was 0.496.
In the case of “AATTTCTCTTGGGTTCTAACCTGTTGCCT (site TATTTCTCTAG)”, the “recombinant barcode read abundance (log10)” value was 0.0924.
For “ACAAAGACTTGGGTTCTAACCTGTTGCGC (site ACAAAGACTGC)”, the “recombinant barcode read abundance (log10)” value was 0.656.
With “ACAAAGACTTGGGTTCTAACCTGTTGCGC (site ACACAGACTGC)” the “recombinant barcode read abundance (log10)” value was 0.242.
In the case of “ACAAAGACTTGGGTTCTAACCTGTTGCGC (site ACAGAGACTGC)”, the “recombinant barcode read abundance (log10)” value was 0.326.
In the case of “ACAAAGACTTGGGTTCTAACCTGTTGCGC (site ACATAGACTGC)”, the “recombinant barcode read abundance (log10)” value was 0.137.
For “ACAAAGGCTTGGGTTCTAACCTGTTGCGG (site ACAAAAGCTCC)”, the “recombinant barcode read abundance (log10)” value was 1.69.
For “ACAAAGGCTTGGGTTCTAACCTGTTGCGG (site ACAAAGGCTCC)”, the “recombinant barcode read abundance (log10)” value was 2.51.
With “ACAAGACCTTGGGTTCTAACCTGTTGCAT (site ACAAGACCTAT)” the “recombinant barcode read abundance (log10)” value was 1.47.
For “ACAAGACCTTGGGTTCTAACCTGTTGCAT (site TTCTAGTCTTA)”, the “recombinant barcode read abundance (log10)” value was 0.0713.
With “ACAATACCTTGGGTTCTAACCTGTTGCCT (site ACAATACCTAG)” the “recombinant barcode read abundance (log10)” value was 1.16.
In the case of “ACAATACCTTGGGTTCTAACCTGTTGCCT (site ATAATACCTAG)”, the “recombinant barcode read abundance (log10)” value was 0.143.
In the case of “ACAATAGCTTGGGTTCTAACCTGTTGCTG (site ACAATAGCTCA)”, the “recombinant barcode read abundance (log10)” value was 0.738.
For “ACAATAGCTTGGGTTCTAACCTGTTGCTG (site ACACTAGCTCA)”, the “recombinant barcode read abundance (log10)” value was 0.0138.
For “ACAATAGCTTGGGTTCTAACCTGTTGCTG (site ACAGTAGCTCA)”, the “recombinant barcode read abundance (log10)” value was 0.0118.
With “ACAATAGCTTGGGTTCTAACCTGTTGCTG (site ACATTAGCTCA)” the “recombinant barcode read abundance (log10)” value was 0.0649.
For “ACAATGACTTGGGTTCTAACCTGTTGCCT (site ACAATGACTAG)”, the “recombinant barcode read abundance (log10)” value was 0.904.
With “ACAATGACTTGGGTTCTAACCTGTTGCCT (site ACAGTGACTAG)” the “recombinant barcode read abundance (log10)” value was 0.132.
With “ACACCGCCTTGGGTTCTAACCTGTTGCCT (site ACACCGCCTAG)” the “recombinant barcode read abundance (log10)” value was 0.299.
In the case of “ACACCGCCTTGGGTTCTAACCTGTTGCCT (site CCACCGCCTAG)”, the “recombinant barcode read abundance (log10)” value was 0.118.
With “ACACCGCCTTGGGTTCTAACCTGTTGCCT (site GCACCGCCTAG)” the “recombinant barcode read abundance (log10)” value was 0.192.
For “ACACCGCCTTGGGTTCTAACCTGTTGCCT (site TCACCGCCTAG)”, the “recombinant barcode read abundance (log10)” value was 0.118.

Reference: the supplement of paper PMC11208160
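Further: IS621 recombinase and bridge RNA in Escherichia coli cells.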
